Results published in article PMC4742130 (2015).

Tests used:
[1] = tested on: HTG22 (DNA, G4) AGGGTTAGGGTTAGGGTTAGGG; assay: SPR, Langmuir kinetic fit; settings: 100 mM KCl; 50 mM Tris-HCl, pH 7.4, 25 °C; highest concentration 20 μM
[2] = tested on: F21T (DNA, G4) GGGTTAGGGTTAGGGTTAGGG; assay: FRET melting; settings: 60 mM KCl; 10 mM Tris-HCl, pH 7.4; 0.2 μM DNA; 1 μM compound (Figure S2A)
[3] = tested on: HTG21 (DNA, G4) GGGTTAGGGTTAGGGTTAGGG; assay: CD titration; settings: no added K+ or Na+; 10 mM Tris-HCl, pH 7.4, 25 °C; 5 μM DNA; 0 to 5 mol equiv; induces antiparallel G4
[4] = tested on: hairpin duplex DNA (DNA, hairpin) TTTTTTTTTCGAATTCGTTTTTCGAATTCG; assay: SPR, Langmuir kinetic fit; settings: 100 mM KCl; 50 mM Tris-HCl, pH 7.4, 25 °C; highest concentration 20 μM

KD [1]	Compound	other results
7.57 µM	COc1ccc2cc3[n+](cc2c1OCCCNC(=O)C(N)CCCCN)CCc1cc2c(cc1-3)OCO2 (stereo not shown)	KD [4]: 28900 µM
10.5 µM	COc1ccc2cc3[n+](cc2c1OCCCNC(=O)C(N)CCCNC(=N)N)CCc1cc2c(cc1-3)OCO2 (stereo not shown)	KD [4]: 13900 µM
133 µM	COc1ccc2cc3[n+](cc2c1OCCN)CCc1cc2c(cc1-3)OCO2	–

Continued, compound first:

Compound	KD [1]	other results
COc1ccc2cc3[n+](cc2c1NCCCN1CCCC1)CCc1cc2c(cc1-3)OCO2	29 µM	–
COc1ccc2cc3[n+](cc2c1NCCCN1CCCCC1)CCc1cc2c(cc1-3)OCO2	149 µM	–
COc1ccc2cc3[n+](cc2c1NCCN1CCCCC1)CCc1cc2c(cc1-3)OCO2	10.8 µM	–
COc1ccc2cc3[n+](cc2c1NCCO)CCc1cc2c(cc1-3)OCO2	680 µM	–
COc1ccc2cc3[n+](cc2c1OC)CCc1cc2c(cc1-3)OCO2	170 µM	binding [2]: weak
COc1ccc2cc3[n+](cc2c1OCCCCCCCl)CCc1cc2c(cc1-3)OCO2	–	binding [3]: yes; binding [1]: yes
